Assay [1] deals with IRAK1 (His-TEV-IRAK1 (194-712)) (Homo sapiens (Human), UniProt P51617). Description: IRAK1 enzymatic assay. The assay is classed as biochemical. As to the method: IRAK1 is a human purified recombinant enzyme (His-TEV-IRAK1 (194-712)). In this assay, IRAK-1 hydrolyses ATP and autophosphorylates. Measurement of IRAK-1 inhibition was performed in streptavidin coated 384well FlashPlate (PerkinElmer #SMP410A).
His-TEV-IRAK-1 (15 ng/well), ATP (1 μM, [33P]ATP 0.25 μCi/well) and compounds in DMSO (range of concentrations from 20 µM to 1 nM) or controls (2% DMSO) were incubated for 3 hours at 30° C. in assay buffer: Hepes pH7.0 50 mM, Fatty acid-free BSA 0.1%, Dithiothreitol DTT 2 mM, MgCl2 10 mM, EGTA 0.5 mM, Triton-X-100 0.01%. Kinase reaction was stopped by addition of EDTA. Supernatant was discarded, plates were washed three times with 150 mM NaCl and radioactivity was then measured in a Microbeta Trilux reader.

The target of assay [2] is IRAK4 (Homo sapiens (Human), UniProt Q9NWZ3). Briefly: IRAK4 enzymatic assay. The class given is biochemical. As to the method:
IRAK4 is a human purified recombinant enzyme ([…]. IRAK4 hydrolyses ATP, autophosphorylates and phosphorylates a Serine/Threonine generic peptidic substrate (STK: 61ST1BLC from CisBio International based in Bagnols/Cèze FR).
Measurement of IRAK-4 inhibition was performed in streptavidin coated 384well FlashPlate (PerkinElmer #SMP410A). His-TEV-IRAK4 (20 ng/well), ATP (2 μM, [^33P]ATP 0.25 µCi/well), STK1-biotin peptide (300 nM) and compounds in DMSO (range of concentrations from 20 µM to 1 nM) or controls (2% DMSO) were incubated for 3 hours at 30° C. in assay buffer: Hepes pH7.0 50 mM, Fatty acid-free BSA 0.1%, Dithiothreitol DTT 2 mM, MgCl2 10 mM, EGTA 0.5 mM, Tween-20 0.01%, MnCl2 5 mM.
Kinase reaction was stopped by addition of EDTA. Supernatant was discarded, plates were washed three times with 150 mM NaCl and radioactivity was then measured in a Microbeta Trilux reader.

Data on 45 compounds can be found in US9790221B2, “Heteroaryl compounds as IRAK inhibitors and uses thereof” (Merck Patent GmbH, priority 2014, dated 2017).

The structures appear in SMILES notation.

IRAK4, sequence (Q9NWZ3 whole entry): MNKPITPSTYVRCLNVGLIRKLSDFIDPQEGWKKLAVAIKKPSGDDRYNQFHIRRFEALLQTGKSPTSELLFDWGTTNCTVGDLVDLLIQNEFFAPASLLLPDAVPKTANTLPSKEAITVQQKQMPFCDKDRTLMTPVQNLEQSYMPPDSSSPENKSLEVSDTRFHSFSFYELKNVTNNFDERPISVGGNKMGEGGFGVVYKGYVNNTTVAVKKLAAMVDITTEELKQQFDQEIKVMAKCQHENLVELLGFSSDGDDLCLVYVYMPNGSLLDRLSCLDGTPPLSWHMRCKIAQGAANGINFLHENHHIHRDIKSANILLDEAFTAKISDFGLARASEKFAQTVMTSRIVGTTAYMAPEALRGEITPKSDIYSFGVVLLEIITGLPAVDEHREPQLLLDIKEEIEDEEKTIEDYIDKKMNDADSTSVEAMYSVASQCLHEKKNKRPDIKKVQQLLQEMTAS
IRAK1 (His-TEV-IRAK1 (194-712)), sequence (P51617 194-712): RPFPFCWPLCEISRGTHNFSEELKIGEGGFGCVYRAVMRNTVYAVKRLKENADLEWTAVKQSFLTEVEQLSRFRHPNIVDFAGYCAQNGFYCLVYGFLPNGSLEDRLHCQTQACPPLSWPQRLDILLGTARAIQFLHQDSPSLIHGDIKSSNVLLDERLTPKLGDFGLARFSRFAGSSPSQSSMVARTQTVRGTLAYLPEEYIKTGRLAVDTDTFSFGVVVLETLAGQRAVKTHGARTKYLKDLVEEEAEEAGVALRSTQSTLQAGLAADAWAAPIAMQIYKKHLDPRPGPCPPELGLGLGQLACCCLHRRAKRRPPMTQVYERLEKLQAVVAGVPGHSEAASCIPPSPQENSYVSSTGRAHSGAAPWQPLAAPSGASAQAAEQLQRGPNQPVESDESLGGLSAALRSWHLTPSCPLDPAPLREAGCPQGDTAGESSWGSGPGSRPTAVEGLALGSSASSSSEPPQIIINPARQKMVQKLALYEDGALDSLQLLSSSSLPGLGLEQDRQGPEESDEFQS

As for `Cn1cc(-c2cccc(-c3ncc(-c4cnn(C)c4)c(N4CC[C@@H](N)C4)n3)c2)cn1` [Example 241], the 50% inhibitory concentration (IC50) in assay [1] was in the range of 1 to 5 µM; in assay [2], 0.1 to 1 µM.

As for `CN(CCC#N)c1nc(-c2cccc(-c3cnn(C)c3)c2)ncc1-c1cnn(C)c1` [Example 222], the concentration for half-maximal inhibition (IC50) in assay [1] and in assay [2] was 0.1 to 1 µM each time.

In the case of `Cn1cc(-c2cccc(-c3ncc(-c4cnn(C)c4)c(N[C@H]4CCNC4)n3)c2)cn1` [Example 121], the 50% inhibitory concentration (IC50) was greater than 5 µM in assay [1] and 0.1 to 1 µM in assay [2].

In the case of `Cn1cc(-c2cccc(-c3ncc(-c4cnn(C)c4)c(N4CCCC(CO)C4)n3)c2)cn1` (stereo not drawn) [Example 220], the results for the half-inhibitory concentration (IC50) in assay [1] and in assay [2] were 0.1 to 1 µM and less than 0.1 µM, respectively.

Turning to `Cc1nnc(-c2cnc(-c3cccc(-c4cnn(C)c4)c3)nc2NCC2CN(S(C)(=O)=O)C2)s1` [Example 192], the IC50 in assay [1] was 1 to 5 µM; in assay [2] it was less than 0.1 µM.

With `Cn1cc(-c2cccc(-c3ncc(-c4ccn(C)n4)c(NC4CCC5CNCC54)n3)c2)cn1` (stereo not drawn) [Example 154], the half-inhibitory concentration (IC50) is greater than 5 µM in assay [1] and 0.1 to 1 µM in assay [2].

Consider `Cn1cc(-c2cccc(-c3ncc(-c4ccn(C)n4)c(N[C@H]4C[C@@H](N)C4)n3)c2)cn1` [Example 124], for which the 50% inhibitory concentration (IC50) in assay [1] was greater than 5 µM; in assay [2], 0.1 to 1 µM.

`CN1CCOC(CNc2nc(-c3cccc(-c4cnn(C)c4)c3)ncc2-c2cnn(C)c2)C1` (stereo not drawn) [Example 105]: the half-maximal inhibitory concentration (IC50) in assay [1] was greater than 5 µM; in assay [2], 0.1 to 1 µM.

For `Cn1cc(-c2cccc(-c3ncc(-c4ccn(C)n4)c(NCCCC(C)(C)O)n3)c2)cn1` [Example 140], the IC50 was 1 to 5 µM in assay [1] and 0.1 to 1 µM in assay [2].

As for `Cn1cc(-c2cccc(-c3ncc(-c4cnn(C)c4)c(NC(C)(C)C)n3)c2)cn1` [Example 223], the concentration for half-maximal inhibition (IC50) in assay [1] is 0.1 to 1 µM; in assay [2] it was less than 0.1 µM.

For the compound `Cn1cc(-c2cccc(-c3ncc(-c4cnn(C)c4)c(NCC4CN(S(C)(=O)=O)CCO4)n3)c2)cn1` (stereo not drawn) [Example 172], the values for the half-maximal inhibitory concentration (IC50) in assay [1] and in assay [2] were 0.1 to 1 µM and less than 0.1 µM, respectively.

Take `CC(=O)NCCNc1nc(-c2cccc(-c3cnn(C)c3)c2)ncc1-c1ccn(C)n1` [Example 73]: the IC50 in assay [1] and in assay [2] was 1 to 5 µM throughout.

On to `Cn1cc(-c2cccc(-c3ncc(-c4cnn(C)c4)c(NCCCC(C)(C)O)n3)c2)cn1` [Example 139], for which the IC50 in assay [1] and in assay [2] was 0.1 to 1 µM throughout.

For the compound `Cn1cc(-c2cccc(-c3ncc(-c4ccn(C)n4)c(NC4CC(F)(F)C4)n3)c2)cn1` [Example 90], the half-inhibitory concentration (IC50) in assay [1] and in assay [2] was greater than 5 µM throughout.

In the case of `Cn1cc(-c2cccc(-c3ncc(-c4cnn(C)c4)c(NCC4CCNCC4F)n3)c2)cn1` (stereo not drawn) [Example 229], the results for the half-inhibitory concentration (IC50) in assay [1] and in assay [2] were greater than 5 µM and 0.1 to 1 µM, respectively.

With `Cn1cc(-c2cccc(-c3ncc(-c4cnn(C)c4)c(NC4(CO)COC4)n3)c2)cn1` [Example 92], the concentration for half-maximal inhibition (IC50) in assay [1] and in assay [2] was greater than 5 µM throughout.

Regarding `Cn1cc(-c2cccc(-c3ncc(-c4cnn(C)c4)c(NCCCN4CCCC4=O)n3)c2)cn1` [Example 40], the concentration for half-maximal inhibition (IC50) in assay [1] was greater than 5 µM; in assay [2], 1 to 5 µM.

Turning to `Cn1cc(-c2cccc(-c3ncc(-c4cnn(C)c4)c(N4CCCC(CN)C4)n3)c2)cn1` (stereo not drawn) [Example 6, C-(1-{5-(1-Methyl-1H-pyrazol-4-yl)-2-[3-(1-methyl-1H-pyrazol-4-yl)-phenyl]-pyrimidin-4-yl}-piperidin-3-yl)-methylamine Hydrochoride], the results for the IC50 in assay [1] and in assay [2] were greater than 5 µM and 1 to 5 µM, respectively.

Take `Cn1cc(-c2cccc(-c3ncc(-c4ccn(C)n4)c(N[C@H]4CCC[C@@H]4O)n3)c2)cn1` (racemic) [Example 95]: the IC50 in assay [1] is greater than 5 µM; in assay [2], less than 0.1 µM.

Consider `Cn1cc(-c2cccc(-c3ncc(-c4cnn(C)c4)c(NCCCCN)n3)c2)cn1` [Example 88], for which the IC50 in assay [1] was greater than 5 µM; in assay [2], 0.1 to 1 µM.

As to `Cn1cc(-c2cccc(-c3ncc(-c4cnn(C)c4)c(NC4CC(CO)(CO)C4)n3)c2)cn1` [Example 180], the IC50 in assay [1] was 0.1 to 1 µM; in assay [2], less than 0.1 µM.

For `Cn1cc(-c2cccc(-c3ncc(-c4cnn(C)c4)c(NCC4[C@H]5CN(S(C)(=O)=O)C[C@@H]45)n3)c2)cn1` (stereo partly drawn) [Example 173], the values for the concentration for half-maximal inhibition (IC50) in assay [1] and in assay [2] were greater than 5 µM and 0.1 to 1 µM, respectively.

In the case of `CC(=O)NCCCNc1nc(-c2cccc(-c3cnn(C)c3)c2)ncc1-c1cnn(C)c1` [Example 109], the half-maximal inhibitory concentration (IC50) in assay [1] is greater than 5 µM; in assay [2], 0.1 to 1 µM.

For the compound `Cn1cc(-c2cccc(-c3ncc(-c4cnn(C)c4)c(NCC4CCOC4)n3)c2)cn1` (racemic) [Example 166], the results for the IC50 in assay [1] and in assay [2] were 0.1 to 1 µM and less than 0.1 µM, respectively.

On to `Cn1cc(-c2cccc(-c3ncc(-c4cnn(C)c4)c(NCC4(O)CCNCC4)n3)c2)cn1` [Example 240], for which the IC50 is greater than 5 µM in assay [1] and 0.1 to 1 µM in assay [2].

On to `Cn1cc(-c2cccc(-c3ncc(-c4cnn(C)c4)c(NCC4(F)CCNCC4)n3)c2)cn1` [Example 231], for which the values for the 50% inhibitory concentration (IC50) in assay [1] and in assay [2] were greater than 5 µM and 1 to 5 µM, respectively.

For the compound `CC(=O)N1CCCCC1CCNc1nc(-c2cccc(-c3cnn(C)c3)c2)ncc1-c1cnn(C)c1` (stereo not drawn) [Example 258], the IC50 in assay [1] was greater than 5 µM; in assay [2], 0.1 to 1 µM.

Consider `Cn1cc(-c2cccc(-c3ncc(-c4cnn(C)c4)c(N[C@@H]4CNC[C@@H](F)C4)n3)c2)cn1` [Example 130], for which the IC50 in assay [1] fell in the range of 1 to 5 µM; in assay [2] it was 0.1 to 1 µM.

For `Cn1cc(-c2cccc(-c3ncc(-c4ccn(C)n4)c(OCC4CCCCO4)n3)c2)cn1` (stereo not drawn) [Example 8, 5-(1-Methyl-1H-pyrazol-3-yl)-2-[3-(1-methyl-1H-pyrazol-4-yl)-phenyl]-4-(tetrahydro-pyran-2-ylmethoxy)-pyrimidine], the half-inhibitory concentration (IC50) in assay [1] is greater than 5 µM; in assay [2] it was 1 to 5 µM.

For `Cn1cc(-c2cccc(-c3ncc(-c4cnn(C)c4)c(NCC4(F)CCN(S(C)(=O)=O)CC4)n3)c2)cn1` [Example 236], the results for the half-maximal inhibitory concentration (IC50) in assay [1] and in assay [2] were 1 to 5 µM and 0.1 to 1 µM, respectively.

For the compound `COC(=O)[C@@H]1CCC[C@H](Nc2nc(-c3cccc(-c4cnn(C)c4)c3)ncc2-c2cnn(C)c2)C1` [Example 232], the IC50 in assay [1] is 0.1 to 1 µM; in assay [2] it was less than 0.1 µM.

Consider `Cn1cc(-c2cccc(-c3ncc(-c4cnn(C)c4)c(NCCCN)n3)c2)cn1` [Example 89], for which the IC50 in assay [1] is greater than 5 µM; in assay [2], 1 to 5 µM.

As to `Cn1cc(-c2cccc(-c3ncc(-c4cnn(C)c4)c(N4CC[C@@H](NS(C)(=O)=O)C4)n3)c2)cn1` [Example 247], the IC50 in assay [1] fell in the range of 1 to 5 µM; in assay [2], 0.1 to 1 µM.

As to `Cn1cc(-c2cccc(-c3ncc(-c4cnn(C)c4)c(NC[C@H]4CCNC4)n3)c2)cn1` [Example 64], the 50% inhibitory concentration (IC50) in assay [1] fell in the range of 1 to 5 µM; in assay [2], 0.1 to 1 µM.

Regarding `Cn1cc(-c2cccc(-c3ncc(-c4ccn(C)n4)c(NCCN4CCOC4=O)n3)c2)cn1` [Example 91], the IC50 in assay [1] and in assay [2] was greater than 5 µM each time.

Take `Cn1cc(-c2cccc(-c3ncc(-c4cnn(C)c4)c(N4CCC[C@H]4CO)n3)c2)cn1` [Example 230]: the figures for the concentration for half-maximal inhibition (IC50) in assay [1] and in assay [2] were greater than 5 µM and 1 to 5 µM, respectively.

In the case of `Cn1cc(-c2cccc(-c3ncc(-c4ccn(C)n4)c(N[C@H]4CCNC4)n3)c2)cn1` [Example 117], the IC50 in assay [1] was greater than 5 µM; in assay [2] it was 0.1 to 1 µM.

With `Cn1cc(-c2cccc(-c3ncc(-c4cnn(C)c4)c(NCC4CCCC4N)n3)c2)cn1` (stereo not drawn) [Example 200], the values for the concentration for half-maximal inhibition (IC50) in assay [1] and in assay [2] were 1 to 5 µM and 0.1 to 1 µM, respectively.

In the case of `Cn1cc(-c2cccc(-c3ncc(-c4ccn(C)n4)c(NCCN4CCCC4=O)n3)c2)cn1` [Example 70], the IC50 in assay [1] is 0.1 to 1 µM; in assay [2] it was 1 to 5 µM.

Regarding `Cn1cc(-c2cccc(-c3ncc(-c4ccn(C)n4)c(NC[C@H]4CCNC4)n3)c2)cn1` [Example 104], the IC50 in assay [1] was in the range of 1 to 5 µM; in assay [2] it was 0.1 to 1 µM.

As for `Cn1cc(-c2cccc(-c3ncc(-c4cnn(C)c4)c(NCCC4(O)CCCC4)n3)c2)cn1` [Example 227], the IC50 is 0.1 to 1 µM in assay [1] and less than 0.1 µM in assay [2].

For `Cn1cc(-c2cccc(-c3ncc(-c4cnn(C)c4)c(NCCCCNS(C)(=O)=O)n3)c2)cn1` [Example 177], the IC50 is 0.1 to 1 µM in assay [1] and less than 0.1 µM in assay [2].

For the compound `Cn1cc(-c2cccc(-c3ncc(-c4cnn(C)c4)c(NCC4CC4)n3)c2)cn1` [Example 157], the figures for the IC50 in assay [1] and in assay [2] were 0.1 to 1 µM and less than 0.1 µM, respectively.

As to `Cn1cc(-c2cccc(-c3ncc(-c4ccn(C)n4)c(NCC4CCNC(=O)C4)n3)c2)cn1` (stereo not drawn) [Example 74], the values for the 50% inhibitory concentration (IC50) in assay [1] and in assay [2] were 1 to 5 µM and 0.1 to 1 µM, respectively.

`Cn1cc(-c2cccc(-c3ncc(-c4cnn(C)c4)c(NCCC4CCN(S(C)(=O)=O)C4)n3)c2)cn1` (stereo not drawn) [Example 175]: the 50% inhibitory concentration (IC50) in assay [1] and in assay [2] was 0.1 to 1 µM each time.

The IC50 is the point on the concentration scale where inhibition reaches its midpoint. High values mean weaker potency in that assay, low ones greater potency in that assay.
